Here are results for two compounds from BindingDB's records for PubMed 36166643 (University of Santiago De Compostela, 2022).

SMILES strings stand for the structures.

The test can be described thus: Induction of CYP24A1 (unknown orgin) transcriptional activity trasfected in human MCF7 cells incuabted for 48 hrs by luciferase reporter gene assay. A general note: In a reporter assay the amount or activity of a reporter protein is the signal.

As usually defined, the EC50 is the concentration that produces a half-maximal response. A low value points to higher potency in that assay. `C=C1/C(=C\C=C(/CCCCCC(C)(C)O)c2cccc(CCCCCC(C)(C)O)c2)C[C@@H](O)C[C@@H]1O` yielded an EC50 of 5.6 nM. The compound `C=C1/C(=C\C=C\c2cc(CCCCCC(C)(C)O)cc(CCCCCC(C)(C)O)c2)C[C@@H](O)C[C@@H]1O` registered an EC50 of 3 nM.
